# System: A549 cells
# Assay: mRNA array gene expression analysis after transfection
# Format: cell-based, human
# Conditions: A549, 30 nM
substance,measurement,value
"hsa-miR-126 (UCGUACCGUGAGUAAUAAUGC; synthetic pre-miR form, further chemistry not given here) [Synthetic hsa-miR-126 (Pre-miR™-hsa-miR-126, Ambion cat. no. AM17100)]",Δ log2 LBA1 mRNA,1.07 log2
same,Δ log2 LCN2 mRNA,1.032 log2
same,Δ log2 LOC93349 mRNA,1.021 log2
same,Δ log2 LOC257407 mRNA,1.211 log2
same,Δ log2 LRP12 mRNA,−2.094 log2
same,Δ log2 LXN mRNA,1.017 log2
same,Δ log2 M6PRBP1 mRNA,−1.074 log2
same,Δ log2 MAP1B mRNA,−0.706 log2
same,Δ log2 MAP3K1 mRNA,1.609 log2
same,Δ log2 MAPK6 mRNA,−0.81 log2
same,Δ log2 MASK mRNA,−1.4 log2
same,Δ log2 MAWBP mRNA,1.126 log2
same,Δ log2 MAZ mRNA,−1.133 log2
same,Δ log2 MCL1 mRNA,1.394 log2
same,Δ log2 MET mRNA,−0.9508 log2
same,Δ log2 MICAL2 mRNA,−1.182 log2
same,Δ log2 MMP7 mRNA,1.127 log2
same,Δ log2 MR1 mRNA,0.702 log2
same,Δ log2 MTUS1 mRNA,0.7009 log2
same,Δ log2 MYBL1 mRNA,−1.008 log2
same,Δ log2 NAB1 mRNA,−0.7242 log2
same,Δ log2 NCF2 mRNA,−0.8706 log2
same,Δ log2 NEK4 mRNA,−1.197 log2
same,Δ log2 NF1 mRNA,−1.383 log2
same,Δ log2 NF2 mRNA,−0.8288 log2
same,Δ log2 NID1 mRNA,0.8833 log2
same,Δ log2 NPTX1 mRNA,−1.204 log2
same,Δ log2 NR1H4 mRNA,1.063 log2
same,Δ log2 NR2F1 mRNA,0.8754 log2
same,Δ log2 NR4A2 mRNA,1.19 log2
same,Δ log2 NRIP1 mRNA,0.7196 log2
same,Δ log2 NUCKS mRNA,2.05 log2
same,Δ log2 OLFML3 mRNA,−1.333 log2
same,Δ log2 OXTR mRNA,−1.374 log2
same,Δ log2 PCAF mRNA,−1.071 log2
same,Δ log2 PDCD4 mRNA,1.094 log2
same,Δ log2 PDK4 mRNA,1.686 log2
same,Δ log2 PDXK mRNA,−1.142 log2
same,Δ log2 PDZK1IP1 mRNA,0.8906 log2
same,Δ log2 PEX10 mRNA,−0.7177 log2
same,Δ log2 PGK1 mRNA,1.563 log2
same,Δ log2 PHACTR2 mRNA,0.8791 log2
same,Δ log2 PHTF2 mRNA,−1.334 log2
same,Δ log2 PLA1A mRNA,1.623 log2
same,Δ log2 PLA2G4A mRNA,0.8899 log2
same,Δ log2 PLCB1 mRNA,1.421 log2
same,Δ log2 PLEC1 mRNA,−0.9035 log2
same,Δ log2 PLK1 mRNA,−0.7295 log2
same,Δ log2 PLOD2 mRNA,−1.204 log2
same,Δ log2 PMCH mRNA,0.9697 log2
same,Δ log2 PMM1 mRNA,−1.034 log2
same,Δ log2 PPP3CB mRNA,−1.185 log2
same,Δ log2 PRKCA mRNA,−1.083 log2
same,Δ log2 PRO1843 mRNA,1.386 log2
same,Δ log2 PROS1 mRNA,1.021 log2
same,Δ log2 PSME3 mRNA,−0.8427 log2
same,Δ log2 PTENP1 mRNA,0.8904 log2
same,Δ log2 PTK9 mRNA,1.028 log2
same,Δ log2 PTP4A1 mRNA,0.7259 log2
same,Δ log2 PXN mRNA,−0.8029 log2
same,Δ log2 Pfs2 mRNA,−0.7674 log2
same,Δ log2 QDPR mRNA,−1.048 log2
same,Δ log2 QKI mRNA,0.7094 log2
same,Δ log2 RAB2 mRNA,1.459 log2
same,Δ log2 RAB11FIP2 mRNA,−0.8417 log2
same,Δ log2 RAB40B mRNA,1.166 log2
same,Δ log2 RABL2B /// RABL2A mRNA,−0.8805 log2
same,Δ log2 RAFTLIN mRNA,0.9753 log2
same,Δ log2 RARRES1 mRNA,1.523 log2
same,Δ log2 RARRES3 mRNA,1.399 log2
same,Δ log2 RASSF2 mRNA,−1.355 log2
same,Δ log2 RBP4 mRNA,1.037 log2
same,Δ log2 RGC32 mRNA,1.701 log2
same,Δ log2 RHEB mRNA,1.113 log2
same,Δ log2 RHOB mRNA,−1.015 log2
same,Δ log2 RHOBTB1 mRNA,1.197 log2
same,Δ log2 RIG mRNA,0.9993 log2
same,Δ log2 RIP mRNA,1.299 log2
same,Δ log2 RNASE4 mRNA,1.351 log2
same,Δ log2 RNF14 mRNA,−1.293 log2
same,Δ log2 RPL14 mRNA,0.7937 log2
same,Δ log2 RPL38 mRNA,1.084 log2
same,Δ log2 RPS11 mRNA,1.097 log2
same,Δ log2 RRAGD mRNA,1.193 log2
same,Δ log2 SCARB2 mRNA,0.9635 log2
same,Δ log2 SCML1 mRNA,0.9483 log2
same,Δ log2 SDC1 mRNA,−0.9726 log2
same,Δ log2 SDC4 mRNA,−1.316 log2
same,Δ log2 SEC24A mRNA,0.7724 log2
same,Δ log2 SELENBP1 mRNA,1.193 log2
same,Δ log2 SEPP1 mRNA,2.014 log2
same,Δ log2 SEPT9 mRNA,−0.7282 log2
same,Δ log2 SERPINA6 mRNA,1.032 log2
same,Δ log2 SERPINE1 mRNA,−1.338 log2
same,Δ log2 SF3B4 mRNA,−1.044 log2
same,Δ log2 SGPL1 mRNA,−1.59 log2
same,Δ log2 SGPP1 mRNA,−1.773 log2
same,Δ log2 SH3YL1 mRNA,1.026 log2
same,Δ log2 SLC2A3 mRNA,0.7467 log2
same,Δ log2 SLC3A2 mRNA,−1.221 log2
same,Δ log2 SLC4A4 mRNA,−1.661 log2
same,Δ log2 SLC4A7 mRNA,−0.9064 log2
same,Δ log2 SLC7A5 mRNA,−1.958 log2
same,Δ log2 SLC7A11 mRNA,−0.721 log2
same,Δ log2 SLC26A2 mRNA,−1.615 log2
same,Δ log2 SLC35D1 mRNA,−1.443 log2
same,Δ log2 SLC39A6 mRNA,−2.468 log2
same,Δ log2 SMARCA2 mRNA,0.8119 log2
same,Δ log2 SMTN mRNA,−1.071 log2
same,Δ log2 SNRPD1 mRNA,−0.7027 log2
same,Δ log2 SOCS2 mRNA,−0.7193 log2
same,Δ log2 SORBS3 mRNA,−1.106 log2
same,Δ log2 SPFH2 mRNA,0.9346 log2
same,Δ log2 SRD5A1 mRNA,−0.9713 log2
same,Δ log2 STC1 mRNA,0.8696 log2
same,Δ log2 STK24 mRNA,−1.021 log2
same,Δ log2 STX3A mRNA,0.7983 log2
same,Δ log2 SUMO2 mRNA,0.9996 log2
same,Δ log2 TAGLN mRNA,−0.9221 log2
same,Δ log2 TARDBP mRNA,−1.05 log2
same,Δ log2 TFG mRNA,0.9981 log2
same,Δ log2 TFPI mRNA,1.003 log2
same,Δ log2 TGFBR2 mRNA,1.068 log2
same,Δ log2 TGFBR3 mRNA,1.082 log2
same,Δ log2 THBS1 mRNA,−0.9922 log2
same,Δ log2 TJP2 mRNA,0.8301 log2
same,Δ log2 TLR3 mRNA,1.096 log2
same,Δ log2 TM4SF20 mRNA,0.9319 log2
same,Δ log2 TNFAIP6 mRNA,−1.542 log2
same,Δ log2 TNFRSFI2A mRNA,−1.07 log2
same,Δ log2 TNFSF10 mRNA,1.066 log2
same,Δ log2 TNRC9 mRNA,0.8141 log2
same,Δ log2 TNS1 mRNA,1.235 log2
same,Δ log2 TP73L mRNA,0.7602 log2
same,Δ log2 TRA1 mRNA,1.982 log2
same,Δ log2 TRIM14 mRNA,−1.157 log2
same,Δ log2 TRIM22 mRNA,1.379 log2
same,Δ log2 TSC mRNA,1.372 log2
same,Δ log2 TSPAN7 mRNA,0.8049 log2
same,Δ log2 TSPAN8 mRNA,1.266 log2
same,Δ log2 TTC3 mRNA,0.7079 log2
same,Δ log2 TUBB2 /// TUBB-PARALOG mRNA,−0.904 log2
same,Δ log2 TXN mRNA,1.543 log2
same,Δ log2 TncRNA,1.613 log2
same,Δ log2 UAP1 mRNA,−1.613 log2
same,Δ log2 UBE2L6 mRNA,0.9119 log2
same,Δ log2 UPK1B mRNA,−1.042 log2
same,Δ log2 VDAC1 mRNA,−1.181 log2
same,Δ log2 VDAC3 mRNA,1.063 log2
same,Δ log2 VIL2 mRNA,0.7604 log2
same,Δ log2 WDR1 mRNA,−0.8373 log2
same,Δ log2 WDR41 mRNA,−1.49 log2
same,Δ log2 WEE1 mRNA,0.8892 log2
same,Δ log2 WNT7B mRNA,−1.114 log2
same,Δ log2 XM_371853 (gene symbol —) mRNA,0.9326 log2
same,Δ log2 XTP2 mRNA,0.9083 log2
same,Δ log2 YKT6 mRNA,−1.176 log2
same,Δ log2 YOD1 mRNA,0.869 log2
same,Δ log2 YTHDF3 mRNA,−0.9397 log2
same,Δ log2 ZNF467 mRNA,1.211 log2

# From US20090131354A1, “miR-126 REGULATED GENES AND PATHWAYS AS TARGETS FOR THERAPEUTIC INTERVENTION” (priority 2007, published 2009)
